In patent publication US6046207A, “Benzopyranopyrrole and benzopyranopyridine α-1 adrenergic compounds” (priority 1997, dated 2000):
Read-outs that look alike come from different tables or passages of the source.

Experiments:
α-1 adrenoreceptors = conditions: cited from earlier work; for urinary flow rates and subjective symptom scores, longer term studies: BPH patients
[1] = molecular target: T1, α-1b (hamster) adrenoreceptor (Mesocricetus auratus, UniProt P18841); assay: biochemical; conditions: read-out: Radioligand Binding Ki, 1b (Hamster)
T1 sequence (P18841 1-515): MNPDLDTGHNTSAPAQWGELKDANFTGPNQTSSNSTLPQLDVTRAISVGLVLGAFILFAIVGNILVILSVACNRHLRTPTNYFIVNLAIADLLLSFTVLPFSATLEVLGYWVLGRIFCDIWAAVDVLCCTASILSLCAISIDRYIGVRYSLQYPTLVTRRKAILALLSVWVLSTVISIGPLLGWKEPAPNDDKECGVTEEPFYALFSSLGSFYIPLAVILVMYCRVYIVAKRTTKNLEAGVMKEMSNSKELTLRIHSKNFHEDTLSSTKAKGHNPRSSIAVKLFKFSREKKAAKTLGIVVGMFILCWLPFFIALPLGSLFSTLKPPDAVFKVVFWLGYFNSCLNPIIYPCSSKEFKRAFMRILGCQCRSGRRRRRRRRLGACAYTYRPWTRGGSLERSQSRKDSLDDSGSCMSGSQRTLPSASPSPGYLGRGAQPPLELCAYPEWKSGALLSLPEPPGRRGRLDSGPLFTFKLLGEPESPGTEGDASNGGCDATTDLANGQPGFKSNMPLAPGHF
Description: (§1) In the following, for purposes of discussing alpha-1 adrenoreceptor subtypes, the IUPHAR convention of using lower case letters to define molecular clones and upper case letters to indicate pharmacologically defined adrenoreceptors has been followed. Moreover, the newly recommended nomenclature for alpha-1 (α1a, α1b, α1d) has been used.
(§2) Additionally, binding affinity against the pharmacologically defined α-1A adrenoreceptor (rat submaxillary gland) was measured.
(§3) The cDNA clones encoding the α-1 adrenoreceptors (α-1a, α-1b, and α-1d) were obtained from TULCO (Triangle Universities Licensing Consortium, Research Triangle Park, NC) and inserted into the eukaryotic expression vector SnaB30. In this vector, expression of the adrenoreceptor gene is under the transcriptional control of an SV40 early promoter. Positive drug selection is provided by a neomycin-resistance gene. Mouse fibroblast cells (LTK) were transfected with the α1 expression plasmids and grown in Dulbecco's modified Eagle's medium (DMEM) containing 10% fetal calf serum and 30 μM G418. Stable G418-resistant parental lines were generated, with successful expression of adrenoreceptor protein monitored using radioligand binding techniques. Stable single cell clones derived from the parental lines were screened in adrenoreceptor binding assays to identify clones having high adrenoreceptor density. […]

[2] = molecular target: T2, α-1B adrenoreceptor (rat spleen) (Rattus norvegicus, UniProt P15823); assay: Functional antagonism: inhibition of phenylephrine-induced contraction of rat spleen; set-up: species or system tissue; conditions: for more potent effect on spleen smooth muscle: rat spleen versus the other tissues, in words
T2 construct: contraction of rat spleen; from tissue; host or cells: rat spleen
T2 sequence (P15823 1-515): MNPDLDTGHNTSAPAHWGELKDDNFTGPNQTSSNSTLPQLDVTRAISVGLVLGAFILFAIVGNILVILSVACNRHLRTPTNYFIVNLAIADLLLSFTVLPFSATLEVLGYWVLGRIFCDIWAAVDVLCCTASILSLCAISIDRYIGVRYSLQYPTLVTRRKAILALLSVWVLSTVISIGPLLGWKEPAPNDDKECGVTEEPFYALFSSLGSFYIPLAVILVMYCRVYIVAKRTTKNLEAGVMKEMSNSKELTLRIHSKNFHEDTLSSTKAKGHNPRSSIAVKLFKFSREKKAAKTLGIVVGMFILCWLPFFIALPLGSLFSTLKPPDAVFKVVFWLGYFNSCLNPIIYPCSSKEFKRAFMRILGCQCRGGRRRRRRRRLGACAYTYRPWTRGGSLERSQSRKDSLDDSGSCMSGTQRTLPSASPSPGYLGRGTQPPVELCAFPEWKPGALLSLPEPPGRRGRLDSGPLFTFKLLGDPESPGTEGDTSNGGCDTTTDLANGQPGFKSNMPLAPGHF
Text: (§4) Functional assays indicative of pharmacologically defined α-1 adrenoreceptors were used to further characterize compounds. […] For each of these models, agonist dose response curves were repeated against increasing concentrations of test agent to derive a Schild plot [log ([…]) against log (molarity of test agent)] to determine the pA2.

[3] = molecular target: T3, α-1A adrenoreceptor (rat submaxillary gland) (Rattus norvegicus, UniProt P43140); assay: Radioligand binding, [3H]-prazosin displacement, α-1A (rat submaxillary gland); conditions: [3H]prazosin 0.2 nM
T3 construct: Rat submaxillary glands were used for α-1A adrenoreceptors; from tissue; host or cells: rat submaxillary gland membranes
T3 sequence (P43140 1-466): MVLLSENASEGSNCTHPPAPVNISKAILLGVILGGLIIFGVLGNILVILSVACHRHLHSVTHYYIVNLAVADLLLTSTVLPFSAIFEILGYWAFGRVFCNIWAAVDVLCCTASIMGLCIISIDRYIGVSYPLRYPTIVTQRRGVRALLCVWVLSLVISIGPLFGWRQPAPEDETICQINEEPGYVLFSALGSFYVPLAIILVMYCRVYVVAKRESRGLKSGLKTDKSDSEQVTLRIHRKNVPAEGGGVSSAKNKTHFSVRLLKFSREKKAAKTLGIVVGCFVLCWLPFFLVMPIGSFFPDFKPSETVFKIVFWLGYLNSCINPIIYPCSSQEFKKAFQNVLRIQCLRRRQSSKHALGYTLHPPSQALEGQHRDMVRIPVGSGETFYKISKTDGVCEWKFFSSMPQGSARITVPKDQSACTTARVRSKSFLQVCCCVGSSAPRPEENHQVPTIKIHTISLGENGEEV
Description: as §1, §2
Cells were detached from the roller bottles by incubating for 15 minutes at 37° C. in a Tris-EDTA solution (10 mM Tris, 100 mM NaCl, 1 mM EDTA, pH=7.4). The cell suspension from each roller bottle was decanted into tared centrifuge tubes and kept on ice. An aliquot of each cell suspension was generally taken for cell counting. […] The supernatant was decanted and the pellet weighed to determine the wet weight of cells. Cells were washed a final time in 40 vol 5 mM Tris-HCl, 5 mM EDTA, pH=7.7, and centrifuged at 40,000×G for 10 minutes. Cells were homogenized in 10 mL of 50 mM Tris-HCl, 5 mM EDTA (pH=7.4) and diluted to 40 mL/tube. Homogenates were centrifuged at 40,000×G for 10 minutes. […]
Receptor binding assays for α-1 adrenoreceptors were performed essentially as described by Greengrass and Bremner (Eur. J. Pharmacol. 55: 323-326 (1979)). […] Radioactivity was determined by standard liquid scintillation techniques.

[4] = molecular target: T4, α-1A adrenoreceptor (rat vas deferens) (Rattus norvegicus, UniProt P43140); assay: Functional antagonism: inhibition of phenylephrine-induced contraction of rat vas deferens; set-up: species or system tissue; conditions: Schild
T4 construct: contraction of rat vas deferens; from tissue; host or cells: rat vas deferens
T4 sequence (P43140 1-466): T3 sequence (P43140 1-466)
Text: as §4

[5] = molecular target: T5, α-1a (bovine) adrenoreceptor (Bos taurus, UniProt P18130); assay: Radioligand binding, [3H]-prazosin displacement, cloned α-1a expressed in LTK cells; conditions: cloned bovine α-1a, LTK cell membranes, [3H]prazosin 0.2 nM
T5 construct: expressed in transfected cells; host or cells: mouse fibroblast LTK cells, vector SnaB30, cDNA from TULCO
T5 sequence (P18130 1-466): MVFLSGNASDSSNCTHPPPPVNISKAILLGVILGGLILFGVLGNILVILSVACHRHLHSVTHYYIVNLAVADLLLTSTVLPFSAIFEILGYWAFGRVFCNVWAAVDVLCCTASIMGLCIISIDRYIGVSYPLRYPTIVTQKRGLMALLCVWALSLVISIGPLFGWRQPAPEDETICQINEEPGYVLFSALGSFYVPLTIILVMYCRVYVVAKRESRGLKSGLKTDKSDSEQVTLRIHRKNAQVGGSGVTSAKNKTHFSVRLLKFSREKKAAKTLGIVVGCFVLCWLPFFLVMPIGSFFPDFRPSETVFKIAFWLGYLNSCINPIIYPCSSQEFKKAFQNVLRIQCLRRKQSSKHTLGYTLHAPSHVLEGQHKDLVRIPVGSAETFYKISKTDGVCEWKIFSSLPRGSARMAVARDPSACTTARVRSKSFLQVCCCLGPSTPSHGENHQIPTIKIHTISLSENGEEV
Description: as §1, §2, §3

Row | Structure (SMILES) | urinary flow rates and subjective symptom scores, longer term studies (α-1 adrenoreceptors) | more potent effect on spleen smooth muscle [2] | also measured
1 | O=C(NC1CCN(CCc2c[nH]c3ccccc23)CC1)c1ccccc1 [indoramin] | significant improvements in urinary flow rates and subjective symptom scores |  | 
2 | COc1ccc2c(c1)[C@@H]1CN(CCCn3c(=O)[nH]c4c(sc5ncccc54)c3=O)C[C@@H]1CO2 (racemic) [Example 77, 3-[3-((±)-cis-8-Methoxy-1,2,3,3a,4,9b-hexahydro-[1]-benzopyrano[3,4-c]pyrrol-2-yl)propyl]-pyrido[3',2':4,5]thieno[3,2-d]pyrimidine-2,4(1H,3H)-dione] |  |  | Ki [1]: 10000 nM
3 | COc1cc2nc(N3CCN(C(=O)C4CCCO4)CC3)nc(N)c2cc1OC (centres unmarked) [Terazosin, terazosin] | significant improvements in urinary flow rates and subjective symptom scores | a more potent effect on spleen smooth muscle by approximately an order of magnitude | 
4 | COc1cccc2c1[C@@H]1CN(CCCCn3c(=O)[nH]c4c(sc5nc(Cl)ccc54)c3=O)C[C@@H]1CO2 [Example 32, 3-[4-((3aR,9bR)-cis-9-Methoxy-1,2,3,3a,4,9b-hexahydro-[1]-benzopyrano[3,4-c]pyrrol-2-yl)butyl]-7-chloro-pyrido[3',2':4,5]thieno[3,2-d]pyrimidine-2,4(1H,3H)-dione] |  |  | Ki ([1]; cloned hamster α-1b, LTK cell membranes, [3H]prazosin 0.2 nM): 9.95 nM; Ki [3]: 1.01 nM; In Vitro Characterization (pA2), Rat Vas [4]: 9.46; Ki [5]: 0.093 nM; In Vitro Characterization (pA2), Rat Spleen ([2]; rat spleen, phenylephrine, Schild): 7.24
5 | COc1cc2nc(N3CCN(C(=O)c4ccco4)CC3)nc(N)c2cc1OC [Prazosin, prazosin] | significant improvements in urinary flow rates and subjective symptom scores | a more potent effect on spleen smooth muscle by approximately an order of magnitude | urinary incontinence during antihypertensive treatment (α-1 adrenoreceptors; women, antihypertensive treatment): urinary incontinence developed in women
6 | COc1cc2nc(N3CCN(C(=O)C4COc5ccccc5O4)CC3)nc(N)c2cc1OC (centres unmarked) [Doxazosin, doxazosin] | significant improvements in urinary flow rates and subjective symptom scores | a more potent effect on spleen smooth muscle by approximately an order of magnitude | 
